Data on five compounds can be found in ChEMBL document CHEMBL1649364, “Synthesis and antifungal activity of some substituted phenothiazines and related compounds” (2011).

Assay [1] can be described thus: Antifungal activity against Exophiala xenobiotica by microdilution test. The format is functional. A general note: Broth dilution looks for growth in wells or tubes with falling amounts of substance.
Assay [2] deals with Cryptococcus neoformans. Nature of the assay: Antifungal activity against Cryptococcus neoformans by microdilution test. The format is functional.
Assay [3] concerns Exophiala spinifera. Description: Antifungal activity against Exophiala spinifera by microdilution test. Type of assay: functional.
In assay [4] the test system is Nakaseomyces glabratus. Nature of the assay: Antifungal activity against Candida glabrata by microdilution test. Type of assay: functional.
In assay [5] the test system is Aspergillus niger. Nature of the assay: Antifungal activity against Aspergillus niger by microdilution test. The format is functional.
Assay [6] concerns Aspergillus nidulans. Description: Antifungal activity against Aspergillus nidulans by microdilution test. The format is functional, organism-based.
Assay [7] deals with Aspergillus terreus. Description: Antifungal activity against Aspergillus terreus by microdilution test. Type of assay: functional.
Assay [8] concerns Meyerozyma guilliermondii. Nature of the assay: Antifungal activity against Candida guilliermondii by microdilution test. Type of assay: functional.
The nature of assay [9]: Antifungal activity against Exophiala oligosperma by microdilution test. Type of assay: functional.
Assay [10] deals with Pichia kudriavzevii. Nature of the assay: Antifungal activity against Candida krusei by microdilution test. Type of assay: functional.
Assay [11] has as its system Aspergillus flavus. Nature of the assay: Antifungal activity against Aspergillus flavus by microdilution test. Type of assay: functional.
Assay [12] deals with Candida albicans. Nature of the assay: Antifungal activity against Candida albicans by microdilution test. Type of assay: functional.
For assay [13], the system named is Candida parapsilosis. Nature of the assay: Antifungal activity against Candida parapsilosis by microdilution test. The format is functional.
Assay [14] in a line: Antifungal activity against Cladophialophora carrionii by microdilution test. The format is functional.
The nature of assay [15]: Antifungal activity against Aspergillus fumigates by microdilution test. The format is functional.
For assay [16], the system named is Aspergillus nidulans. Description: Antifungal activity against Aspergillus nidulans by diffusion test. Type of assay: functional, organism-based.
Assay [17] is described as follows: Antifungal activity against Exophiala xenobiotica by diffusion test. The format is functional.
Assay [18] concerns Exophiala spinifera. Description: Antifungal activity against Exophiala spinifera by diffusion test. Type of assay: functional, organism-based.
In assay [19] the test system is Cryptococcus neoformans. Nature of the assay: Antifungal activity against Cryptococcus neoformans by diffusion test. Type of assay: functional, organism-based.
Assay [20] deals with Pichia kudriavzevii. Description: Antifungal activity against Candida krusei by diffusion test. The format is functional, organism-based.
Assay [21] in a line: Antifungal activity against Cladophialophora carrionii by diffusion test. Type of assay: functional.
Assay [22] deals with Aspergillus terreus. Nature of the assay: Antifungal activity against Aspergillus terreus by diffusion test. Type of assay: functional, organism-based.
The subject of assay [23] is Aspergillus niger. Description: Antifungal activity against Aspergillus niger by diffusion test. The format is functional, organism-based.
Assay [24] deals with Candida parapsilosis. Nature of the assay: Antifungal activity against Candida parapsilosis by diffusion test. The format is functional, organism-based.
In assay [25] the test system is Meyerozyma guilliermondii. Nature of the assay: Antifungal activity against Candida guilliermondii by diffusion test. Type of assay: functional, organism-based.
Assay [26] relates to Aspergillus flavus. Nature of the assay: Antifungal activity against Aspergillus flavus by diffusion test. Type of assay: functional, organism-based.
Assay [27] can be described thus: Antifungal activity against Aspergillus fumigates by diffusion test. The format is functional.
The nature of assay [28]: Antifungal activity against Exophiala oligosperma by diffusion test. The format is functional.
For assay [29], the system named is Nakaseomyces glabratus. Nature of the assay: Antifungal activity against Candida glabrata by diffusion test. Type of assay: functional, organism-based.
In assay [30] the test system is Candida albicans. Description: Antifungal activity against Candida albicans by diffusion test. Type of assay: functional, organism-based.

The source made the active and inactive calls. The calls are words filed in the database; no cut-off is given here.

`O=C(CCl)n1c2ccccc2c2ccccc21`: the outcome (in [1]; in the assay on Cryptococcus neoformans [2]; in the assay on Exophiala spinifera [3]; in the assay on Nakaseomyces glabratus [4]; in the assay with Aspergillus niger [5]; with Aspergillus nidulans [6]) was inactive. Further, the outcome (with Aspergillus terreus [7]; in assay [8]; in assay [9]; with Pichia kudriavzevii [10]; in the assay on Aspergillus flavus [11]; with Candida albicans [12]) was inactive. Further, the result (in the assay with Candida parapsilosis [13]; in [14]; in [15]) was inactive.

In the case of `CN(C)S(=O)(=O)c1ccc2c(c1)Nc1ccccc1S2`, the result (with Aspergillus nidulans [16]; in [17]; in the assay on Exophiala spinifera [18]; in the assay with Cryptococcus neoformans [19]; in the assay with Pichia kudriavzevii [20]; in assay [21]) was Active. Also, the outcome (with Aspergillus terreus [22]; in the assay on Aspergillus niger [23]; with Candida parapsilosis [24]; in assay [25]; in the assay with Aspergillus flavus [26]; in assay [27]) was Active. Besides, the outcome (in [28]; with Nakaseomyces glabratus [29]; in the assay on Candida albicans [30]) was Active. Moreover, the outcome (in assay [1]; in the assay on Cryptococcus neoformans [2]; with Exophiala spinifera [3]; in the assay with Nakaseomyces glabratus [4]; in the assay on Aspergillus niger [5]; with Aspergillus nidulans [6]) was inactive. Besides, the outcome (in the assay with Aspergillus terreus [7]; in [8]; in [9]; in the assay on Pichia kudriavzevii [10]; in the assay on Aspergillus flavus [11]; in the assay with Candida albicans [12]) was inactive. Further, the outcome (in the assay on Candida parapsilosis [13]; in assay [14]; in assay [15]) was inactive.

In the case of `O=C(CCl)N(c1ccccc1)c1ccccc1`, the result (in assay [1]; in the assay on Cryptococcus neoformans [2]; in the assay on Exophiala spinifera [3]; with Nakaseomyces glabratus [4]; in the assay with Aspergillus niger [5]; in the assay with Aspergillus nidulans [6]) was inactive. The outcome (with Aspergillus terreus [7]; in assay [8]; in assay [9]; with Pichia kudriavzevii [10]; with Aspergillus flavus [11]; with Candida albicans [12]) was inactive. In addition, the result (in the assay on Candida parapsilosis [13]; in assay [14]; in [15]) was inactive.

Take `OCCC1CCNCC1`: the result (in assay [1]; in the assay with Cryptococcus neoformans [2]; in the assay on Exophiala spinifera [3]; with Nakaseomyces glabratus [4]; in the assay on Aspergillus niger [5]; with Aspergillus nidulans [6]) was inactive. The result (in the assay with Aspergillus terreus [7]; in assay [8]; in assay [9]; with Pichia kudriavzevii [10]; in the assay on Aspergillus flavus [11]; with Candida albicans [12]) was inactive. The result (in the assay with Candida parapsilosis [13]; in [14]; in assay [15]) was inactive.

For `CC(=O)N1c2ccccc2Sc2ccccc21`, the outcome (in assay [1]; in the assay with Cryptococcus neoformans [2]; in the assay with Exophiala spinifera [3]; with Nakaseomyces glabratus [4]; with Aspergillus niger [5]; in the assay on Aspergillus nidulans [6]) was inactive. Moreover, the outcome (with Aspergillus terreus [7]; in assay [8]; in assay [9]; in the assay with Pichia kudriavzevii [10]; in the assay with Aspergillus flavus [11]; in the assay on Candida albicans [12]) was inactive. The result (in the assay on Candida parapsilosis [13]; in assay [14]; in assay [15]) was inactive.
